# Data as given in patent US10011555B2, “Methods of treating Parkinson's disease” (University of Macau, priority 2013, dated 2018).
# Experiments:
# [1] = tested on: primary cerebellar granule neurons (CGNs); test: MPP+-induced primary CGNs damage, cell viability by MTT; type: cell-based, Sprague-Dawley rats; conditions: pre-treated 6 μM to 50 μM for 2 hours, then 150 μM MPP+ for 36 hours
# Procedure: Primary cerebellar granule neurons (CGNs) were prepared from 8 days old Sprague-Dawley rats, as described in a previous publication (Du, Bales et al. 1997). CGNs cultured in vitro for 7 days were pre-treated with serial concentrations of compounds 1-5 from 6 μM to 50 μM respectively for 2 hours, vehicle group was incubated with 0.1% DMSO. The cells were then exposed to 150 μM MPP^+ for 36 hours. For assessment of the cell viability, 15 μl of 5 mg/ml MTT solution was added to each well containing cell in 100 μl of medium, and the plates were incubated for 4 hours in a humidified incubator at 37° C. After incubation, 100 μl of absolute DMSO was added and incubated for 10 min. Absorbance at 570 nm of each well was measured with a microplate reader.
# zebrafish larvae = test: MPTP-induced reduction of total distance traveled of zebrafish larvae; type: in vivo; conditions: 3 dpf larvae co-treated with 200 μM MPTP for 4 days
# Procedure: The 3 dpf zebrafish larvae were co-treated with 200 μM MPTP and various concentrations of compound 1 for 4 days. At 7 dpf, the total distance the larvae traveled was recorded using a 96-well plate (with 1 fish/well and 12 larvae per group) filled with 200 μl embryo medium. Larvae were allowed to accommodate in the system for an hour before data acquisition. The swimming pattern of each larva was recorded for 10 min in 3 times, with each record session separated by 10 min. The total distance traveled was estimated as the distance (in mm) that the larva had moved during one session (10 min).
# MPTP-injected mice = test: Behavioral testing (pole, rotarod, footprint) in MPTP-injected mice; type: in vivo, C57BL/6J mice; conditions: 5, 10 and 20 mg/kg i.g., 7 days, MPTP 20 mg/kg i.p. x4
# Procedure: Adult male C57BL/6J mice (8-10 weeks of age, 18-22 g) were used in this study. The animals were maintained in 12/12 h light/dark cycle and allowed access to food and water ad libitum. They were allowed to acclimate for 7 days before treatment. […] Then the mice were injected intraperitoneally (i.p.) with 20 mg/kg MPTP hydrochloride (Sigma Aldrich, St. Louis, Mo.), at 2 h internal for total 4 injections. Normal control group were received saline (0.1 mL/10 g) by i.p. One hour prior each MPTP injection, compound 1 (5, 10 and 20 mg/kg), rasagiline (1 mg/kg) and equal volume of vehicle (olive oil, 0.1 mL/10 g) were administrated by i.g. Then, compound 1, rasagiline or vehicle was given by i.g. once per day for total 7 days (day 1-7). Each of six groups was comprised of 10 mice. […] All the tests were done between 9 am and 2 pm under normal animal room lighting. The pole test was performed to detect impairment of limb movement. A table tennis ball (5 cm diameter) was equipped on the top of a vertical pole (55 cm length and 1 cm diameter). The pole was wrapped with a double layer of gauze to avoid slipping. The animal was placed head upward on the table tennis ball. […] The system logs the fall as the end of the experiment for that mouse, and the total time on the rotarod was recorded. […] The average retention time on the rod was calculated. […] Their footsteps were recorded on a white absorbing paper.
# [2] = tested on: TH-positive dopaminergic neurons in the SNpc; test: TH immunohistochemistry of SNpc in MPTP-injected mice; type: in vivo, C57BL/6J mice
# Procedure: Adult male C57BL/6J mice (8-10 weeks of age, 18-22 g) were used in this study. The animals were maintained in 12/12 h light/dark cycle and allowed access to food and water ad libitum. They were allowed to acclimate for 7 days before treatment. […] Then the mice were injected intraperitoneally (i.p.) with 20 mg/kg MPTP hydrochloride (Sigma Aldrich, St. Louis, Mo.), at 2 h internal for total 4 injections. Normal control group were received saline (0.1 mL/10 g) by i.p. One hour prior each MPTP injection, compound 1 (5, 10 and 20 mg/kg), rasagiline (1 mg/kg) and equal volume of vehicle (olive oil, 0.1 mL/10 g) were administrated by i.g. Then, compound 1, rasagiline or vehicle was given by i.g. once per day for total 7 days (day 1-7). Each of six groups was comprised of 10 mice. Mice were sacrificed for tissue preparation on the day 9 as described in FIG. 6. Mice in each group were anesthetized and perfused intracardially with 0.9% sodium chloride containing heparin, and then fixed with 4% paraformaldehyde (PFA). […] The results were analyzed by counting the numbers of TH-positive cells at ×10 magnifications on a stereomicroscope (BX51, Olympus Corp. Japan). TH-positive cells in 8 position-matched sections of each mouse were counted manually by operator who was blinded to the drug treatment. […]
# PC12 cells = test: 6-OHDA-induced PC12 cell damage and cytotoxicity on PC12 cells, cell viability by MTT; type: cell-based, Rat
# Procedure: Rat pheochromocytoma cells (PC12) cells were seeded in c100 cm dishes at a density of 1.5˜2×10^6 cells/dish. After culturing in a medium with a low serum level (F-12K medium with 0.5% FBS) for 24 hours, the cells were pretreated with serial concentrations of compound 1 from 6 μM to 50 μM for 12 hours. The cells were then exposed to 1 mM 6-OHDA for 2 hours. Cell viability of cells was assessed similarly as described in Example 5.
# [3] = tested on: zebrafish dopaminergic neurons; test: MPTP-induced dopaminergic neuron loss in zebrafish, whole-mount TH immunostaining; type: in vivo; conditions: co-treatment with 200 μM MPTP for 48 hours
# Procedure: Zebrafish embryo was dechorinated at 1 day post fertilization (dpf) and was cultured under co-treatment of 200 μM MPTP and various concentrations of compound 1 for 48 hours. Afterwards, zebrafish was fixed in 4% paraformaldehyde in PBS for 5 hours, rinsed and stored at −20° C. in 100% EtOH. Whole-mount immunostaining was done by standard methods (Bitzur, Kam et al. 1994). Further, compound 1 can protect MPTP-induced dopaminergic neuron loss in zebrafish in a dose-dependent manner with Emax at the concentration of 5 μM as shown in FIG. 3B in which the results were expressed quantitatively as percentages of area of TH-positive cells in comparison to untreated control group.
# [4] = tested on: primary cerebellar granule neurons (CGNs); test: Synergistic neuroprotective effect of compound 1 and chrysin on MPP+-induced primary CGNs damage; type: cell-based, Sprague-Dawley rats; conditions: 25 and 50 μM of compound 1, p<0.05
# Procedure: Primary cerebellar granule neurons (CGNs) were prepared from 8 days old Sprague-Dawley rats as described (Zhang et al., 2012). […] The cell viability was estimated similarly as in Example 5.
# CGNs were also co-treated with compound 1 and chrysin to explore the pharmacological interaction between two compounds.
compound,measurement,setting,value
"CC(C)[C@@H](CCC(=O)O)C1=CC(C)(O)CCC1=O (stereo partly drawn) [Compound 3, (4R)-4-(3-hydroxy-3-methyl-6-oxocyclohex-1-enyl)-5-methylhexanoic acid]",concentration of Emax of neuroprotective effect on MPP+-induced primary SD rat CGNs damage,[1],25 µM
"Cc1ccc(O)c([C@H](CCC(=O)O)C(C)C)c1 [Compound 1, (R)-4-(2-hydroxy-5-methylphenyl)-5-methylhexanoic acid]",effect on MPTP-induced reduction of total distance traveled,zebrafish larvae,attenuated MPTP-induced reduction of total distance traveled of the larvae in a dose dependent manner
same,"effect on movement abnormalities (pole test, foot printing duration and stride length, rotarod)",MPTP-injected mice,largely corrected the movement abnormalities in a dose-dependent manner
same,effect on MPTP-induced TH-positive cell body loss in SNpc,"[2]; compound 1 5, 10 and 20 mg/kg i.g., pre- and post-treatment, 7 days",significantly reduced the MPTP-induced TH-positive cell body loss in a dose-dependent manner
same,concentration of maximum efficacy (Emax) of neuroprotective effect on 6-OHDA-induced PC12 cell damage,PC12 cells; 1 mM 6-OHDA for 2 hours,50 µM
same,cytotoxicity on PC12 cells,"PC12 cells; all tested concentrations (6 μM to 50 μM), 12 hours",did not exhibit any cytotoxicity
same,effect on 6-OHDA cytotoxicity to PC12 cells,"PC12 cells; pretreated 6 μM to 50 μM for 12 hours, then 1 mM 6-OHDA for 2 hours",could alleviate the cytotoxic effect in a dose-dependent manner
same,effect on MPTP-induced DA neuron injury,[3],attenuated MPTP-induced DA neuron injury in a dose-dependent manner
same,concentration of Emax of protection against MPTP-induced dopaminergic neuron loss in zebrafish,[3]; area of TH-positive cells,5 µM
same,concentration of Emax of neuroprotective effect on MPP+-induced primary SD rat CGNs damage,[1],50 µM
same,cell viability vs MPP+ alone,[4],significantly enhanced
"O=c1cc(-c2ccccc2)oc2cc(O)c(O)c(O)c12 [baicalein, reference compound]",protection of PC12 cells against 6-OHDA-induced neuronal damage,PC12 cells; positive control at 100 μM,obviously protected
"Cc1ccc(O)c([C@@H](CCC(=O)O)C(C)C)c1 [Compound 4, (S)-4-(2-hydroxy-5-methylphenyl)-5-methylhexanoic acid]",concentration of Emax of neuroprotective effect on MPP+-induced primary SD rat CGNs damage,[1],12 µM
"C#CCN[C@@H]1CCc2ccccc21 [rasagiline, reference compound]",effect on MPTP-induced TH-positive cell body loss in SNpc,"[2]; rasagiline 1 mg/kg i.g., same schedule",prevented against the MPTP-induced TH-positive cell body loss
"Cc1ccc(O)c(C(CCC(=O)O)C(C)C)c1 (racemic) [Compound 5, 4-(2-hydroxy-5-methylphenyl)-5-methylhexanoic acid]",concentration of Emax of neuroprotective effect on MPP+-induced primary SD rat CGNs damage,[1],50 µM
"CC(C)[C@H](CCC(=O)O)C1=CC(C)(O)CCC1=O (stereo partly drawn) [Compound 2, (4S)-4-(3-hydroxy-3-methyl-6-oxocyclohex-1-enyl)-5-methylhexanoic acid]",concentration of Emax of neuroprotective effect on MPP+-induced primary SD rat CGNs damage,[1],50 µM
